Data taken from patent US20250114356A1, “INDAZOLE BASED COMPOUNDS AND ASSOCIATED METHODS OF USE” (Arvinas Operations, Inc., priority 2020, published 2025).

Assays:
G2019S LRRK2 = target: T1, G2019S LRRK2 (Homo sapiens, UniProt Q5S007, G2019S); assay: LRRK2 degradation assay, G2019S LRRK2-HiBit expressed from plasmid in HEK293 cells; type: cell-based; settings: HEK293 cells transfected with HiBit-tagged G2019S LRRK2, 24 hours compound incubation
T1 construct: expressed in transfected cells; host or cells: HEK293 (ATCC CRL-1573), transient transfection, ubiquitin promoter
T1 sequence (Q5S007 whole entry G2019S): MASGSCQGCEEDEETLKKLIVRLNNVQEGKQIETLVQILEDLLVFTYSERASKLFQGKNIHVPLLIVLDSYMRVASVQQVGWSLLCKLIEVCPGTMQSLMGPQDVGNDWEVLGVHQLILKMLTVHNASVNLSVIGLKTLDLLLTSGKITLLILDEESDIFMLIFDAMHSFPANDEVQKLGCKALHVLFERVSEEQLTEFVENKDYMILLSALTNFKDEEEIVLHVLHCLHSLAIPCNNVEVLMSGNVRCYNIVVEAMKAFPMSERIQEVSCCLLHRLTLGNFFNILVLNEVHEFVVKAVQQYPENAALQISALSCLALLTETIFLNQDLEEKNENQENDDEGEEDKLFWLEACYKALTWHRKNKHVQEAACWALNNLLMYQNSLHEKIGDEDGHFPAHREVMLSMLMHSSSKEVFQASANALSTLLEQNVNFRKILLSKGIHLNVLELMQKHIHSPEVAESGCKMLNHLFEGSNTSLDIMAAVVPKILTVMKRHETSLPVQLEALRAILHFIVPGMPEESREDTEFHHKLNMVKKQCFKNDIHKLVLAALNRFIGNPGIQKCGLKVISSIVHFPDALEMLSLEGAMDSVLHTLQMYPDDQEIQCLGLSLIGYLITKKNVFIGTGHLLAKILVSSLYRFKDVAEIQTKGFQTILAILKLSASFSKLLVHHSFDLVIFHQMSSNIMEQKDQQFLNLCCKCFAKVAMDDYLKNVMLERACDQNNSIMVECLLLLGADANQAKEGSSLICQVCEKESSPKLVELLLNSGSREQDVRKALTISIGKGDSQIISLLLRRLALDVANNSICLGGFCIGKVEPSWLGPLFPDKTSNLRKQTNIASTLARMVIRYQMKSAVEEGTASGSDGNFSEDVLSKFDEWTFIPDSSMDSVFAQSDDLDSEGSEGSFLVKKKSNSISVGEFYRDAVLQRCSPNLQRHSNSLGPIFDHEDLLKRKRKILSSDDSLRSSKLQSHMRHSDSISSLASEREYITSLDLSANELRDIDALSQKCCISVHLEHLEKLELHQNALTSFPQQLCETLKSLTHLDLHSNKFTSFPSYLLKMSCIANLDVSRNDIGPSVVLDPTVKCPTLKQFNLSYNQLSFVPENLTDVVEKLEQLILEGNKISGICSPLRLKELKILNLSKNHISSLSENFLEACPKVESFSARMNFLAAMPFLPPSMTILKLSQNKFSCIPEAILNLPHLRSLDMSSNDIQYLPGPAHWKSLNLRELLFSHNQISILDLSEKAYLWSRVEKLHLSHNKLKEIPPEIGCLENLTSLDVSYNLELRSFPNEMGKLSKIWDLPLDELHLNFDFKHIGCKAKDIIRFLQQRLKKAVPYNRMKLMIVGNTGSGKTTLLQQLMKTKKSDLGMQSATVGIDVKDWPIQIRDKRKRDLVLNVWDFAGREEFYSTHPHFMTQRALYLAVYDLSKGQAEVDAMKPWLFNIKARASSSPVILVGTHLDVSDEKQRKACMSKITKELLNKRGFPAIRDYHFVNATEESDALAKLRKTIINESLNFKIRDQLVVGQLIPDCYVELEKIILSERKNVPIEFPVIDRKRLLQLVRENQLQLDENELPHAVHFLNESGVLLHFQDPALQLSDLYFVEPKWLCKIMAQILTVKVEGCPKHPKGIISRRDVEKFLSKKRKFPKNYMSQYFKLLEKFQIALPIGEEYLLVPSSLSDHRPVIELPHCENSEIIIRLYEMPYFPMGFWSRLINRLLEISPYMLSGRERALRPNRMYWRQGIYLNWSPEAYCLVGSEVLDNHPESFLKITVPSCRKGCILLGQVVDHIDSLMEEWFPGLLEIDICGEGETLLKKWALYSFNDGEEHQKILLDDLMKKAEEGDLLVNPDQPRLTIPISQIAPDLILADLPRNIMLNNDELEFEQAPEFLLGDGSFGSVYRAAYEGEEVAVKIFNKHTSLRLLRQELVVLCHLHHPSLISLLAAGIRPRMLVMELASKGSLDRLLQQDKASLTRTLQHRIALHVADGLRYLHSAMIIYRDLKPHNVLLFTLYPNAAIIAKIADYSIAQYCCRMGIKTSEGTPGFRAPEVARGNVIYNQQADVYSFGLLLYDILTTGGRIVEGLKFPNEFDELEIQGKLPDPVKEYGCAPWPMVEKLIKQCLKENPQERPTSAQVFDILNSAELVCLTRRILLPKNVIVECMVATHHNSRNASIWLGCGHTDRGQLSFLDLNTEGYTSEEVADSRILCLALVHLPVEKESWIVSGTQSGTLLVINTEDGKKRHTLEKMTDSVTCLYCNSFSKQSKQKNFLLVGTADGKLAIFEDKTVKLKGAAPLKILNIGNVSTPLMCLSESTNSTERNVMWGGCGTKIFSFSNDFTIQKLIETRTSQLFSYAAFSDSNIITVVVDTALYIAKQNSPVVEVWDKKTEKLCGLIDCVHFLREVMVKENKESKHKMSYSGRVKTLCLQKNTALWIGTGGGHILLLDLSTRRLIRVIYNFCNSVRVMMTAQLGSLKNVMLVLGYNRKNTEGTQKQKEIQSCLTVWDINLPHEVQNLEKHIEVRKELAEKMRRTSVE
Method: (§1) The assay measures the degradation of wildtype and G2019S LRRK2 tagged with a HiBit tag on the C-terminus of the protein that was expressed from a mammalian expression vector, driven by the ubiquitin promoter in HEK293 cells. Each compound dose-response was repeated on two separate days, on three separate plates each day.
(§2) Plasmid Preparation. Transfection mixes were assembled as follows and incubated for 30 minutes at room temperature. In a 15 mL tube, 5.25 mL Opti-MEM (no additions) was mixed with 17 μL Firefly Luciferase plasmid at 1 μg/μL and 158 μL WT plasmid DNA at 1 μg/μL (175 μg total DNA) were mixed by flicking. In a new 15 mL tube, 5.25 mL OptiMEM was mixed with 17 μL Firefly Luciferase plasmid at 1 μg/μL and 158 μL G2019S plasmid DNA at 1 μg/μL (175 μg total DNA) were mixed by flicking. X-tremeGene HP was mixed thoroughly using a vortex. Next, 175 μL was added to each tube and flicked to mix. Both tubes were left to incubate for 30 minutes at room temperature.
(§3) While the transfection mixes were incubating, HEK293 cells (acquired from ATCC; ATCC CRL-1573) were harvested with trypsin. Once cells are detached, the cells were resuspended in 12 mL OptiMEM+5% FBS and transferred to a 50 mL tube. The cells were mixed well and counted. Using OptiMEM+5% FBS, the cells were diluted in two 250 mL conical tubes at 0.71×10^6 cells/mL in 70 mL. One tube was labeled “WT” and the other “G2019S”. The WT and G2019S transfection mixes were added dropwise to the corresponding 250 mL tubes. The tubes were mixed first by pipetting then by swirling. The tubes were incubated at room temperature for at least 5 minutes.
(§4) Each tube was swirled before dispensing and after every three plates. Seventy microliters of cells were dispensed with WT or G2019S DNA to seven plates each. Three plates of each were tested with compound plate one (preparation described below) and three plates of each were tested with compound plate two (preparation described below). The first plate from each set served as a “prime” plate and was not used to test compounds. Each plate was incubated in the hood for 10 minutes before placing in the 37° C. incubator for 24 hours.
(§5) Preparation of Compound and Assay Plates. Two compound plates were made using 96 well polypropylene plates. Compounds were made up at 10 mM and were diluted to 1 mM in 30 μL. Each dose response curve included a well of DMSO, as a negative control and for normalization, and a well of 0.5 μM of Exemplary Compound 4 as a positive control. In addition to seven test compounds, each plate also included a dose response of Exemplary Compound 4. The compound plates were spun down along at 1200 rpm for 2 minutes.
(§6) The two compound plates were then mixed and 2 μL was diluted in intermediate plates having 248 μL of Opti-Mem in each well. Next, 10 μL diluted compounds from the intermediate plates were added to each test plate (three WT and three G2019S plates per compound plate for a total of 12 assay plates). The plates were incubated for 24 hours at 37° C.
(§7) All assay plates and all Nano-Glo Dual-Luciferase Reporter Assay System components (except for the DLR substrate) were equilibrated to room temperature. Next, the luciferase buffer was mixed with the lyophilized amber bottle until fully dissolved, and 75 μL of the luciferase mixture was added to each well of each assay plate. The assay plates were incubated for 10 minutes at room temperature with shaking for at least 5 minutes, and then read on a plate reader.
(§8) Developing Plates and Analyzing Data. One milliliter of DLR substrate and 1 mL LgBiT Protein were added to the Stop and Glo buffer, and 75 μL of the mixture was added to each well of each plate. Optically clear seals were added to each plate and each plate was incubated for 20 minutes with shaking for at least 10 minutes, and then read on a plate reader. […]

wildtype LRRK2 = target: T2, wildtype LRRK2 (Homo sapiens, UniProt Q5S007); assay: LRRK2 degradation assay, wildtype LRRK2-HiBit expressed from plasmid in HEK293 cells; type: cell-based; settings: HEK293 cells transfected with HiBit-tagged wildtype LRRK2, 24 hours compound incubation; for Dmax: read-out: **WT Dmax (%); for DC50: read-out: *WT DC50
T2 construct: expressed in transfected cells; host or cells: HEK293 (ATCC CRL-1573), transient transfection, ubiquitin promoter
T2 sequence (Q5S007 whole entry): as the sequence (Q5S007 whole entry G2019S) above, with S2019G counted along it
Method: as §1, §2, §3, §4, §5, §6, §7, §8

Structure (SMILES)	DC50 (G2019S LRRK2) [nM]	Dmax (G2019S LRRK2) [%]	Dmax (wildtype LRRK2) [%]	DC50 (wildtype LRRK2) [nM]
CC(C)Oc1ccc2[nH]nc(-c3cc(N4CCO[C@H](CCN5CCN(CC6CCN(c7ccc8c(c7)C(=O)N(C7CCC(=O)NC7=O)C8=O)CC6)CC5)C4)ncn3)c2c1 (stereo partly drawn) [compound 50, 2-(2,6-dioxopiperidin-3-yl)-5-(4-((4-(2-((R)-4-(6-(5-isopropoxy-1H-indazol-3-yl)pyrimidin-4-yl)morpholin-2-yl)ethyl)piperazin-1-yl)methyl)piperidin-1-yl)isoindoline-1,3-dione]	< 10	≥ 70	≥ 70	< 10
CC1(Oc2ccc3[nH]nc(-c4cc(N5CCO[C@H](CCOCCOCCOCCOc6ccc7c(c6)C(=O)N(C6CCC(=O)NC6=O)C7=O)C5)ncn4)c3c2)CC1 (stereo in doubt) [compound 17, 2-(2,6-dioxopiperidin-3-yl)-5-(2-(2-(2-(2-(4-(6-(5-(1-methylcyclopropoxy)-1H-indazol-3-yl)pyrimidin-4-yl)morpholin-2-yl)ethoxy)ethoxy)ethoxy)ethoxy)isoindoline-1,3-dione]	50 to 100	≥ 70	≥ 70	10 to 50
C[C@@H]1CN(c2cc(-c3n[nH]c4ccc(OC5(C)CC5)cc34)ncn2)C[C@H](C)N1CCOCCOCCOc1ccc2c(c1)C(=O)N(C1CCC(=O)NC1=O)C2=O (stereo partly drawn) [compound 6, 5-[2-(2-{2-[(2R,6S)-2,6-dimethyl-4-{6-[5-(1-methylcyclopropoxy)-1H-indazol-3-yl]pyrimidin-4-yl}piperazin-1-yl]ethoxy}ethoxy)ethoxy]-2-(2,6-dioxopiperidin-3-yl)-2,3-dihydro-1H-isoindole-1,3-dione]	< 10	50 to 70	50 to 70	< 10
CC(C)Oc1ccc2[nH]nc(-c3cc(N4CCN(CCCCN5CCN(c6ccc7c(c6)C(=O)N(C6CCC(=O)NC6=O)C7=O)CC5)[C@@H](C)C4)ncn3)c2c1 (stereo partly drawn) [compound 23, 2-(2,6-dioxopiperidin-3-yl)-5-(4-{4-[(2S)-2-methyl-4-{6-[5-(propan-2-yloxy)-1H-indazol-3-yl]pyrimidin-4-yl}piperazin-1-yl]butyl}piperazin-1-yl)-2,3-dihydro-1H-isoindole-1,3-dione]	< 10	50 to 70	50 to 70	< 10
CC(C)Oc1ccc2[nH]nc(-c3cc(N4CCN(CCC5CCN(CC6CCN(c7ccc8c(c7)C(=O)N(C7CCC(=O)NC7=O)C8=O)CC6)CC5)CC4)ncn3)c2c1 (centres unmarked) [compound 41, 2-(2,6-dioxopiperidin-3-yl)-5-(4-((4-(2-(4-(6-(5-isopropoxy-1H-indazol-3-yl)pyrimidin-4-yl)piperazin-1-yl)ethyl)piperidin-1-yl)methyl)piperidin-1-yl)isoindoline-1,3-dione]	10 to 50	50 to 70	50 to 70	10 to 50
CC(C)Oc1ccc2[nH]nc(-c3cc(N4CCN(CCN(C)CCN5CCN(c6ccc7c(c6)C(=O)N(C6CCC(=O)NC6=O)C7=O)CC5)[C@@H](C)C4)ncn3)c2c1 (stereo partly drawn) [compound 37, 2-(2,6-dioxopiperidin-3-yl)-5-(4-{2-[methyl({2-[(2S)-2-methyl-4-{6-[5-(propan-2-yloxy)-1H-indazol-3-yl]pyrimidin-4-yl}piperazin-1-yl]ethyl})amino]ethyl}piperazin-1-yl)-2,3-dihydro-1H-isoindole-1,3-dione]	50 to 100	50 to 70	50 to 70	≥ 100

Further lines, results first:

DC50 (G2019S LRRK2) [nM]	Dmax (G2019S LRRK2) [%]	Dmax (wildtype LRRK2) [%]	DC50 (wildtype LRRK2) [nM]	Structure (SMILES)
< 10	50 to 70	≥ 70	< 10	CC(C)Oc1ccc2[nH]nc(-c3cc(N4CCO[C@@H](CCN5CCN(CC6CCN(c7ccc8c(c7)C(=O)N(C7CCC(=O)NC7=O)C8=O)CC6)CC5)C4)ncn3)c2c1 (stereo partly drawn) [compound 49, 2-(2,6-dioxopiperidin-3-yl)-5-(4-((4-(2-((S)-4-(6-(5-isopropoxy-1H-indazol-3-yl)pyrimidin-4-yl)morpholin-2-yl)ethyl)piperazin-1-yl)methyl)piperidin-1-yl)isoindoline-1,3-dione]
10 to 50	50 to 70	50 to 70	< 10	CC(C)Oc1ccc2[nH]nc(-c3cc(N4CCO[C@@H](CN5CCN(CC6CCN(c7ccc8c(c7)C(=O)N(C7CCC(=O)NC7=O)C8=O)CC6)CC5)C4)ncn3)c2c1 (stereo partly drawn) [compound 47, 2-(2,6-dioxopiperidin-3-yl)-5-(4-((4-(((S)-4-(6-(5-isopropoxy-1H-indazol-3-yl)pyrimidin-4-yl)morpholin-2-yl)methyl)piperazin-1-yl)methyl)piperidin-1-yl)isoindoline-1,3-dione]
10 to 50	< 50	< 50	10 to 50	C[C@H]1CN(c2cc(-c3n[nH]c4ccc(OC5(C)CC5)cc34)ncn2)CCN1CCOCCOCCOCCOc1ccc(C(=O)NC2CCC(=O)NC2=O)c(F)c1 (stereo partly drawn) [compound 13, N-(2,6-dioxopiperidin-3-yl)-2-fluoro-4-{2-[2-(2-{2-[(2S)-2-methyl-4-{6-[5-(1-methylcyclopropoxy)-1H-indazol-3-yl]pyrimidin-4-yl}piperazin-1-yl]ethoxy}ethoxy)ethoxy]ethoxy}benzamide]
		50 to 70	< 10	CC(C)Oc1ccc2[nH]nc(-c3cc(N4CCN(CCN5CC(CCN6CCN(c7ccc8c(c7)C(=O)N(C7CCC(=O)NC7=O)C8=O)CC6)C5)CC4)ncn3)c2c1 (centres unmarked) [compound 46, 2-(2,6-dioxopiperidin-3-yl)-5-(4-(2-(1-(2-(4-(6-(5-isopropoxy-1H-indazol-3-yl)pyrimidin-4-yl)piperazin-1-yl)ethyl)azetidin-3-yl)ethyl)piperazin-1-yl)isoindoline-1,3-dione]
50 to 100	< 50	< 50	50 to 100	CC(C)Oc1ccc2[nH]nc(-c3cc(N4CCN(CCN5CC6(CN(CCOc7ccc8c(c7)C(=O)N(C7CCC(=O)NC7=O)C8=O)C6)C5)[C@@H](C)C4)ncn3)c2c1 (stereo partly drawn) [compound 35, 2-(2,6-dioxopiperidin-3-yl)-5-[2-(6-{2-[(2S)-2-methyl-4-{6-[5-(propan-2-yloxy)-1H-indazol-3-yl]pyrimidin-4-yl}piperazin-1-yl]ethyl}-2,6-diazaspiro[3.3]heptan-2-yl)ethoxy]-2,3-dihydro-1H-isoindole-1,3-dione]
< 10	≥ 70	≥ 70	< 10	C[C@H]1CN(c2cc(-c3n[nH]c4ccc(OC5(C)CC5)cc34)ccn2)CCN1CCOCCOCCOCCOc1ccc2c(c1)C(=O)N(C1CCC(=O)NC1=O)C2=O (stereo partly drawn) [compound 12, 2-(2,6-dioxopiperidin-3-yl)-5-{2-[2-(2-{2-[(2S)-2-methyl-4-{4-[5-(1-methylcyclopropoxy)-1H-indazol-3-yl]pyridin-2-yl}piperazin-1-yl]ethoxy}ethoxy)ethoxy]ethoxy}-2,3-dihydro-1H-isoindole-1,3-dione]
10 to 50	50 to 70	50 to 70	10 to 50	CC(C)Oc1ccc2[nH]nc(-c3cc(N4CCN(CCN5CC(C6CCN(c7ccc8c(c7)C(=O)N(C7CCC(=O)NC7=O)C8=O)CC6)C5)CC4)ncn3)c2c1 (centres unmarked) [compound 44, 2-(2,6-dioxopiperidin-3-yl)-5-(4-(1-(2-(4-(6-(5-isopropoxy-1H-indazol-3-yl)pyrimidin-4-yl)piperazin-1-yl)ethyl)azetidin-3-yl)piperidin-1-yl)isoindoline-1,3-dione]
